Test results from patent US20250136607A1 (REGOR PHARMACEUTICALS, INC., priority 2021, published 2025).
Like-named read-outs stand apart in the source and are kept apart here.

Key:
[1] = tested on: Citrullinated Histone H3 in dHL-60 cells (differentiated HL-60); assay: dHL-60 Cit-H3 ELISA assay; type: cell-based, human; details: Homo sapiens, read-out: Average IC50 Abs
Method: Cell culture: HL-60 cells were grown in IMDM+20% FBS+1% PS. The suspension cells were split into 1:5 with fresh media every 2-3 days to maintain cell density between 1×10^5 to 1×10^6 viable cells/mL. HL-60 cells differentiation: HL-60 cells were diluted to 1×10^5 cells/mL and differentiated into neutrophil-like cells with 100 mM DMF treatment for 72 hours in flask at 37° C., 5% CO2. dHL-60 Cells plating: • 1) HL-60 cells were collected, and the plate was centrifuged at 1000 rpm for 5 min. • 2) The HL-60 cells were diluted to 1.25×10^6 cells/mL and plated into a 96-well plate with 80 μL/well (i.e., 1×10^5/well). The plate was then incubated in the incubator (5% CO2, 37° C.) for 30 min to allow cells to adhere. Compound treatment: • 1) Preparation of compound serial dilution (source plate 500×, final DMSO concentration: 0.2%): briefly, compounds were dissolved in 100% DMSO to a concentration of 20 mM (the stock solution) and a 3-fold serial dilution with 8-point doses was performed. • 2) A 10× compound solution was pipetted up and down; and 10 μL/well of compounds were added into each well and incubated for 30 min. Stimulation with 25 μM A23187: • 1) A solution of A23187 (250 μM) in complete IMDM (IMDM+10% FBS+1% PS) containing 150 U/mL S7 Nuclease was prepared. The obtained solution was added 10 μL/well into each well and incubated for 3 h in the incubator (5% CO2, 37° C.). • 2) The dHL-60 cells treated with 10 μL/well complete IMDM without A23187 worked as negative control. Sample preparation: • 1) EDTA (0.5 M, 2 μL/well) were added to all the wells to stop the reaction. • 2) The plate was centrifuged at 1000 rpm for 5 min to collect supernatant. • 3) The supernatant was then diluted at least 1:2 before adding to the ELISA plate for citrullinated H3 analysis.
The standard was reconstituted with 2 mL of Assay buffer to 500 ng/mL. The reconstituted standard was relatively unstable at 4° C. and should be used within 3 hr after reconstitution.
• 1) 100 μL of the standards or diluted samples were added to the wells on the ELISA plate. • 2) The plate was covered with Cover Sheet and incubated for 2 h at room temperaturert on an orbital shaker.
On the day of the assay, the reagent was thawed at room temperaturert. For one plate, 1.2 mL of HRP Conjugate were diluted into 10.8 mL of assay buffer. A diluted HRP Conjugate was prepared shortly before use.
• 1) The wells were empties and rinsed four times with 1× wash buffer with 300 μL/well (Low speed). The plate was inverted between wash steps to empty the plate. After the last wash, the inverted plate was gently tapped on absorbent paper to remove the residual wash buffer. • 2) 100 μL of the HRP Conjugate working solution were added to each well of the plate. • 3) The plate was covered with cover sheet and incubated for 1 h at RT on an orbital shaker.
• 1) The wells were empties and rinsed four times with 1× wash buffer with 300 μL/well (low speed). The plate was inverted between wash steps to empty the plate. […] 100 uL of HRP STOP solution were added to each well of the plate.
• 1) Wipe the bottom of the plate with a clean tissue to remove fingerprints, dirt, etc. • 2) Read the plate at a wavelength of 450 nm.
The percent (%) inhibition at each concentration of compound was calculated based on and relative to the signal in the HPE and ZPE wells contained within each assay plate. The HPE wells worked as […], and the ZPE wells didn't contain any compound but rather DMSO (final concentration=0.1%) as […]. The concentrations and % inhibition values for tested compounds were plotted and the concentration of compound required for 50% inhibition (IC50) was determined with a Four-parameter logistic dose response equation. The endpoint value (IC50) for the reference peptide/compound was evaluated in each experiment as a quality control measure. If the endpoint value is within 3-fold of the expected value then the experiment is deemed acceptable. […]

[2] = molecular target: Protein arginine deiminase 4 (PAD4) (Homo sapiens, UniProt Q9UM07); assay: PAD4 ammonia release assay; type: biochemical; details: PAD4 ammonia release assay, BAEE substrate, 60 min at RT; read-out: Average IC50 Abs
Protein arginine deiminase 4 (PAD4), sequence (Q9UM07 whole entry): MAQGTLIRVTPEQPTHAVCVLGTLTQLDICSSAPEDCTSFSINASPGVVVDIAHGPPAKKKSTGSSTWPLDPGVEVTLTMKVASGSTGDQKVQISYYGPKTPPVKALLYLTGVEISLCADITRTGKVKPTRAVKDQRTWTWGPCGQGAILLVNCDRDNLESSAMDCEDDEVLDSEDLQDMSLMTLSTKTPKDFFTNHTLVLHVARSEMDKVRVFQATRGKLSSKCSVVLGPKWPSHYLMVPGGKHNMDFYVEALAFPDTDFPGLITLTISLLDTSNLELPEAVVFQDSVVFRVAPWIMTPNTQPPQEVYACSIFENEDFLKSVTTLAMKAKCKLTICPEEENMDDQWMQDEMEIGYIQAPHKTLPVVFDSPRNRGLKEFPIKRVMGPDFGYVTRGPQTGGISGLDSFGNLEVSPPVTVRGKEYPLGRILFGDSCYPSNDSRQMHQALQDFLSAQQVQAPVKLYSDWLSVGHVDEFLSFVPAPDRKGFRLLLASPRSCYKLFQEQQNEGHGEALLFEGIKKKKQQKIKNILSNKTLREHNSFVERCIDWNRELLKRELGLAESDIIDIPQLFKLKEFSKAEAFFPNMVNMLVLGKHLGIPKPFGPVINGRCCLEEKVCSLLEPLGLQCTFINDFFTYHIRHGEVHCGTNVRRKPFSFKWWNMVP
How it was run: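 Ammonia release from BAEE substrate (2× mix 600 μM) was measured after 60 min at RT, following 15 min enzyme–compound preincubation (PAD4 2× 20 nM; pH 8.0 HEPES, 2 mM CaCl2, TCEP; 1.25% DMSO). Detection used OPA/DTT/EDTA for 120 min. % inhibition was taken versus reference-compound and DMSO controls; IC50 by four-parameter logistic fit.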

[3] = HL-60, 3 h, stimulation with 25 μM A23187 for 3 h

SMILES	IC50 ([1]; HL-60, stimulation with 25 μM A23187 for 3 h) [nM]	IC50 [2] [nM]	IC50 [1, 3] [nM]
COc1cc(C(=O)N2CCC[C@@H](N)C2)cc2nc(-c3cc4cccc5c4n3CCN5CCO)n(C)c12 [Example 10, (R)-(3-aminopiperidin-1-yl)(2-(1-(2-hydroxyethyl)-2,3-dihydro-1H-pyrrolo[1,2,3-de]quinoxalin-5-yl)-7-methoxy-1-methyl-1H-benzo[d]imidazol-5-yl)methanone]	500 to 5000	500 to 5000	
Cn1c(-c2cc3ccc(C#N)c4c3n2C(C2CC2)CN4)nc2cc(C(=O)N3C[C@H]4CC[C@@H]3[C@@H]4N)cc(F)c21 (mixture of isomers) [Example 114, 5-(5-((1R,4R,7R)-7-amino-2-azabicyclo[2.2.1]heptane-2-carbonyl)-7-fluoro-1-methyl-1H-benzo[d]imidazol-2-yl)-3-cyclopropyl-2,3-dihydro-1H-pyrrolo[1,2,3-de]quinoxaline-9-carbonitrile]		≤ 100	≤ 100
COc1cc(C(=O)N2C[C@H](N)C[C@@H](F)C2)cc2nc(-c3cc4cccc5c4n3CCN5CCCO)n(Cc3cnn(C)c3)c12 [Example 43, ((3R,5R)-3-amino-5-fluoropiperidin-1-yl)(2-(1-(3-hydroxypropyl)-2,3-dihydro-1H-pyrrolo[1,2,3-de]quinoxalin-5-yl)-7-methoxy-1-((1-methyl-1H-pyrazol-4-yl)methyl)-1H-benzo[d]imidazol-5-yl)methanone]		≤ 100	500 to 5000
CCC1CNc2cc(F)cc3cc(-c4nc5cc(C(=O)N6C[C@H]7CC[C@@H]6[C@@H]7N)cc(F)c5n4C)n1c23 (stereo partly drawn) [Example 130, ((1R,4R,7R)-7-amino-2-azabicyclo[2.2.1]heptan-2-yl)(2-(3-ethyl-8-fluoro-2,3-dihydro-1H-pyrrolo[1,2,3-de]quinoxalin-5-yl)-7-fluoro-1-methyl-1H-benzo[d]imidazol-5-yl)methanone]		100 to 500	100 to 500
CC(=O)N1CCc2c(ccc3cc(-c4nc5cc(C(=O)N6C[C@H]7CC[C@@H]6[C@@H]7N)cc(F)c5n4C)n(CC4CC4)c23)C1 [Example 156, 1-(2-(5-((1R,4R,7R)-7-amino-2-azabicyclo[2.2.1]heptane-2-carbonyl)-7-fluoro-1-methyl-1H-benzo[d]imidazol-2-yl)-1-(cyclopropylmethyl)-1,6,8,9-tetrahydro-7H-pyrrolo[2,3-f]isoquinolin-7-yl)ethan-1-one]		≤ 100	≤ 100
Cn1c(-c2cc3cc(F)cc4c3n2C(C2CC2)CN4)nc2cc(C(=O)N3C[C@H]4CC[C@@H]3[C@@H]4N)cc(F)c21 (stereo partly drawn) [Example 122, ((1R,4R,7R)-7-amino-2-azabicyclo[2.2.1]heptan-2-yl)(2-(3-cyclopropyl-8-fluoro-2,3-dihydro-1H-pyrrolo[1,2,3-de]quinoxalin-5-yl)-7-fluoro-1-methyl-1H-benzo[d]imidazol-5-yl)methanone]		100 to 500	100 to 500
COc1cc(C(=O)N2C[C@H](N)C[C@@H](F)C2)cc2nc(-c3cc4cccc5c4n3CCN5CCCO)n(C)c12 [Example 13]		100 to 500	500 to 5000
COc1cc(C(=O)N2C[C@H](N)C[C@@H](F)C2)cc2nc(-c3cc4cccc5c4n3C(C)CN5CCCO)n(C)c12 (stereo partly drawn) [Example 64, ((3R,5R)-3-amino-5-fluoropiperidin-1-yl)(2-(1-(3-hydroxypropyl)-3-methyl-2,3-dihydro-1H-pyrrolo[1,2,3-de]quinoxalin-5-yl)-7-methoxy-1-methyl-1H-benzo[d]imidazol-5-yl)methanone]		100 to 500	100 to 500
CCC1CNc2cccc3cc(-c4nc5cc(C(=O)N6C[C@H]7CC[C@@H]6[C@@H]7N)cc(F)c5n4C)n1c23 (stereo partly drawn) [Example 72, ((1R,4R,7R)-7-amino-2-azabicyclo[2.2.1]heptan-2-yl)(2-(3-ethyl-2,3-dihydro-1H-pyrrolo[1,2,3-de]quinoxalin-5-yl)-7-fluoro-1-methyl-1H-benzo[d]imidazol-5-yl)methanone]		100 to 500	100 to 500
COc1cc(C(=O)N2C[C@H](N)C[C@@H](F)C2)cc2nc(-c3cc4cccc5c4n3CCN5CCCO)n(CC(F)(F)F)c12 [Example 23, ((3R,5R)-3-amino-5-fluoropiperidin-1-yl)(2-(1-(3-hydroxypropyl)-2,3-dihydro-1H-pyrrolo[1,2,3-de]quinoxalin-5-yl)-7-methoxy-1-(2,2,2-trifluoroethyl)-1H-benzo[d]imidazol-5-yl)methanone]		100 to 500	100 to 500
C#CCn1c(-c2cc3cccc4c3n2CCN4CCCO)nc2cc(C(=O)N3C[C@H](N)C[C@@H](F)C3)cc(OC)c21 [Example 49, ((3R,5R)-3-amino-5-fluoropiperidin-1-yl)(2-(1-(3-hydroxypropyl)-2,3-dihydro-1H-pyrrolo[1,2,3-de]quinoxalin-5-yl)-7-methoxy-1-(prop-2-yn-1-yl)-1H-benzo[d]imidazol-5-yl)methanone]		100 to 500	500 to 5000
Cn1c(-c2cc3cccc4c3n2C(C2CCC2)CN4)nc2cc(C(=O)N3C[C@H]4CC[C@@H]3[C@@H]4N)cc(F)c21 (stereo partly drawn) [Example 164, ((1R,4R,7R)-7-amino-2-azabicyclo[2.2.1]heptan-2-yl)(2-(3-cyclobutyl-2,3-dihydro-1H-pyrrolo[1,2,3-de]quinoxalin-5-yl)-7-fluoro-1-methyl-1H-benzo[d]imidazol-5-yl)methanone]		100 to 500	≤ 100
COc1cc(C(=O)N2CCC[C@@H](N)C2)cc2nc(-c3cc4cccc5c4n3CCN5CCCO)n(Cc3cnn(C)c3)c12 [Example 44, (R)-(3-aminopiperidin-1-yl)(2-(1-(3-hydroxypropyl)-2,3-dihydro-1H-pyrrolo[1,2,3-de]quinoxalin-5-yl)-7-methoxy-1-((1-methyl-1H-pyrazol-4-yl)methyl)-1H-benzo[d]imidazol-5-yl)methanone]		100 to 500	500 to 5000
Cn1c(-c2cc3cccc4c3n2C(C2CC2)CN4CCCO)nc2cc(C(=O)N3C[C@H]4CC[C@@H]3[C@@H]4N)cc(F)c21 (mixture of isomers) [Example 111, [(1R,4R,7R)-7-amino-2-azabicyclo[2.2.1]heptan-2-yl]-[2-[11-cyclopropyl-9-(3-hydroxypropyl)-1,9-diazatricyclo[6.3.1.04,12]dodeca-2,4(12), 5,7-tetraen-2-yl]-7-fluoro-1-methyl-benzimidazol-5-yl]methanone]		≤ 100	≤ 100
CCn1cc(Cn2c(-c3cc4cccc5c4n3CCN5CCCO)nc3cc(C(=O)N4C[C@H]5CC[C@@H]4[C@@H]5N)cc(F)c32)cn1 [Example 42, ((1R,4R,7R)-7-amino-2-azabicyclo[2.2.1]heptan-2-yl)(1-((1-ethyl-1H-pyrazol-4-yl)methyl)-7-fluoro-2-(1-(3-hydroxypropyl)-2,3-dihydro-1H-pyrrolo[1,2,3-de]quinoxalin-5-yl)-1H-benzo[d]imidazol-5-yl)methanone]		100 to 500	500 to 5000
